Results on three molecules are retold here after ChEMBL document CHEMBL5715954, “Silencing c-Myc translation as a therapeutic strategy through targeting PI3Kδ and CK1ε in hematological malignancies” (Blood, 2017).

Holding throughout (set-up): scale not given: the % may be the effect or the level left
For experiment [1], the target named is T1, Serine/threonine-protein kinase DCLK1 (Homo sapiens) (UniProt O15075).
T1 sequence (whole entry): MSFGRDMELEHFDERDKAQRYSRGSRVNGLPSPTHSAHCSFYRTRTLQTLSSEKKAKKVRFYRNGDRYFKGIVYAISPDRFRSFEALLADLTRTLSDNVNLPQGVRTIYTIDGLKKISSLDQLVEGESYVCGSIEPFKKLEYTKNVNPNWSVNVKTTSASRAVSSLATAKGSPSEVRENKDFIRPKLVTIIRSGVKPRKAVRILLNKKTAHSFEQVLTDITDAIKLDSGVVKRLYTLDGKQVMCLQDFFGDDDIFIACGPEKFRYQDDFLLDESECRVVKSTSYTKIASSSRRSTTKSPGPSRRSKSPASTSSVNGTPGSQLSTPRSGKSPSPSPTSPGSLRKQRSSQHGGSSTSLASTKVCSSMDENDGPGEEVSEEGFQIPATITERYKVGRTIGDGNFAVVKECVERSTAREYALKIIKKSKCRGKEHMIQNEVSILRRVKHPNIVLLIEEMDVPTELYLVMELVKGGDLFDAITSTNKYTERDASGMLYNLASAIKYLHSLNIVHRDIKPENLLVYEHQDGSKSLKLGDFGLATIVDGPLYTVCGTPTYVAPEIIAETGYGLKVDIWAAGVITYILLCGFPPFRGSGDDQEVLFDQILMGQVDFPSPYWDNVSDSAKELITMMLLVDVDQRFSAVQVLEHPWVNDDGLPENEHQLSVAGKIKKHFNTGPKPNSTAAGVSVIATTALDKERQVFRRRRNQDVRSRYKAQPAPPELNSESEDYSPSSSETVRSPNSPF
The experiment in a line: Inhibition of human DCAMKL1 assessed as enzyme activity at 1 uM using KKLNRTLSFAEPG as substrate preincubated for 20 mins followed by [gamma-33P]-ATP addition and measured after 120 mins by radiometric Hot-SpotSM Kinase assay relative to control.

For experiment [2], the target named is T2, NUAK family SNF1-like kinase 1 (Homo sapiens) (UniProt O60285).
T2 sequence (whole entry): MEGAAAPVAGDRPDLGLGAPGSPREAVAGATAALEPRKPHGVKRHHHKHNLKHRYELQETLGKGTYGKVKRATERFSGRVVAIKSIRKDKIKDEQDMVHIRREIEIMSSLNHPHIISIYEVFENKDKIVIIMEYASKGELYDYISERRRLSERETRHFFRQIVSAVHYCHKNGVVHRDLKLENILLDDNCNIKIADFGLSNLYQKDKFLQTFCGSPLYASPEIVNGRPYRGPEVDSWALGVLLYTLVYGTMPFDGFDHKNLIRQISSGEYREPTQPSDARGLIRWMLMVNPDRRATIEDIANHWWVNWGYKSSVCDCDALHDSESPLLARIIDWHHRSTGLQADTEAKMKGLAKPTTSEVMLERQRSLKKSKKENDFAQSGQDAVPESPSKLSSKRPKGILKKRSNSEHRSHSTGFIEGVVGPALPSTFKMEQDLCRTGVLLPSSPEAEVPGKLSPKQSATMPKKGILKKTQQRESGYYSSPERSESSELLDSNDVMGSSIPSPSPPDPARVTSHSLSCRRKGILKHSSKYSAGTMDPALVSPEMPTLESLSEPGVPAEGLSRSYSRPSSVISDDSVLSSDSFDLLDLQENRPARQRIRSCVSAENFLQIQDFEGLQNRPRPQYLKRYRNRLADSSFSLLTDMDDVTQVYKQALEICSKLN
The experiment in a line: Inhibition of human ARK5 assessed as enzyme activity at 1 uM using KKKVSRSGLYRSPSMPENLNRPR as substrate preincubated for 20 mins followed by [gamma-33P]-ATP addition and measured after 120 mins by radiometric Hot-SpotSM Kinase assay relative to control.

Experiment [3] concerns the target CDK2/Cyclin O (Homo sapiens) (UniProt P24941+P22674). The experiment is described as follows: Inhibition of human CDK2/cyclin O assessed as enzyme activity at 1 uM using Histone H1 as substrate preincubated for 20 mins followed by [gamma-33P]-ATP addition and measured after 120 mins by radiometric Hot-SpotSM Kinase assay relative to control. In kind it is protein-complex assay.

Experiment [4] concerns the target RAF proto-oncogene serine/threonine-protein kinase (Homo sapiens) (UniProt P04049). The experiment in a line: Inhibition of human RAF1 assessed as enzyme activity at 1 uM using MEK1 (K97R) as substrate preincubated for 20 mins followed by [gamma-33P]-ATP addition and measured after 120 mins by radiometric Hot-SpotSM Kinase assay relative to control.
The target of experiment [5] is Proto-oncogene tyrosine-protein kinase receptor Ret (Homo sapiens) (UniProt P07949). The experiment is described as follows: Inhibition of human RET assessed as enzyme activity at 1 uM using RRRRRRRRRRRVYSTDYYRLFNPS as substrate preincubated for 20 mins followed by [gamma-33P]-ATP addition and measured after 120 mins by radiometric Hot-SpotSM Kinase assay relative to control.

Experiment [6] deals with Serine/threonine-protein kinase PLK2 (Homo sapiens) (UniProt Q9NYY3). The experiment is described as follows: Inhibition of human PLK2 assessed as enzyme activity at 1 uM using casein as substrate preincubated for 20 mins followed by [gamma-33P]-ATP addition and measured after 120 mins by radiometric Hot-SpotSM Kinase assay relative to control.
Sequence of Serine/threonine-protein kinase PLK2 (Homo sapiens) (Q9NYY3 whole entry, looked up): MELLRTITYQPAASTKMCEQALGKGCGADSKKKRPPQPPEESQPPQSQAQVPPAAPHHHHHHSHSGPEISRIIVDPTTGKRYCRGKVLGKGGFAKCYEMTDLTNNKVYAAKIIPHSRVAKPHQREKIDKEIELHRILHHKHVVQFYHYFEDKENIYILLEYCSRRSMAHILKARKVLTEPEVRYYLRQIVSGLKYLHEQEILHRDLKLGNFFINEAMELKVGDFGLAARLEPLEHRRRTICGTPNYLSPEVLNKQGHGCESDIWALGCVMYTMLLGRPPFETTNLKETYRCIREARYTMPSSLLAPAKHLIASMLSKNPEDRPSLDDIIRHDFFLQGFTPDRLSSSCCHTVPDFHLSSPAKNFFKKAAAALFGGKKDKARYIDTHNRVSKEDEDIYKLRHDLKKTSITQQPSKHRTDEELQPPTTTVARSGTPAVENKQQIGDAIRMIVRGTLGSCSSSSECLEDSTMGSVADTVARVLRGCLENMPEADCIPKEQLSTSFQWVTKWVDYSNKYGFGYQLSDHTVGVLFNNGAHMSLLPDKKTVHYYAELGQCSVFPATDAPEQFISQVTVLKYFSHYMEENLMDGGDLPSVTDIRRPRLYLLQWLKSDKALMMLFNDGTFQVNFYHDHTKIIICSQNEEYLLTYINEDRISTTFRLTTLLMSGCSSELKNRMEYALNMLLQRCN

Sequence of Proto-oncogene tyrosine-protein kinase receptor Ret (Homo sapiens) (P07949 whole entry): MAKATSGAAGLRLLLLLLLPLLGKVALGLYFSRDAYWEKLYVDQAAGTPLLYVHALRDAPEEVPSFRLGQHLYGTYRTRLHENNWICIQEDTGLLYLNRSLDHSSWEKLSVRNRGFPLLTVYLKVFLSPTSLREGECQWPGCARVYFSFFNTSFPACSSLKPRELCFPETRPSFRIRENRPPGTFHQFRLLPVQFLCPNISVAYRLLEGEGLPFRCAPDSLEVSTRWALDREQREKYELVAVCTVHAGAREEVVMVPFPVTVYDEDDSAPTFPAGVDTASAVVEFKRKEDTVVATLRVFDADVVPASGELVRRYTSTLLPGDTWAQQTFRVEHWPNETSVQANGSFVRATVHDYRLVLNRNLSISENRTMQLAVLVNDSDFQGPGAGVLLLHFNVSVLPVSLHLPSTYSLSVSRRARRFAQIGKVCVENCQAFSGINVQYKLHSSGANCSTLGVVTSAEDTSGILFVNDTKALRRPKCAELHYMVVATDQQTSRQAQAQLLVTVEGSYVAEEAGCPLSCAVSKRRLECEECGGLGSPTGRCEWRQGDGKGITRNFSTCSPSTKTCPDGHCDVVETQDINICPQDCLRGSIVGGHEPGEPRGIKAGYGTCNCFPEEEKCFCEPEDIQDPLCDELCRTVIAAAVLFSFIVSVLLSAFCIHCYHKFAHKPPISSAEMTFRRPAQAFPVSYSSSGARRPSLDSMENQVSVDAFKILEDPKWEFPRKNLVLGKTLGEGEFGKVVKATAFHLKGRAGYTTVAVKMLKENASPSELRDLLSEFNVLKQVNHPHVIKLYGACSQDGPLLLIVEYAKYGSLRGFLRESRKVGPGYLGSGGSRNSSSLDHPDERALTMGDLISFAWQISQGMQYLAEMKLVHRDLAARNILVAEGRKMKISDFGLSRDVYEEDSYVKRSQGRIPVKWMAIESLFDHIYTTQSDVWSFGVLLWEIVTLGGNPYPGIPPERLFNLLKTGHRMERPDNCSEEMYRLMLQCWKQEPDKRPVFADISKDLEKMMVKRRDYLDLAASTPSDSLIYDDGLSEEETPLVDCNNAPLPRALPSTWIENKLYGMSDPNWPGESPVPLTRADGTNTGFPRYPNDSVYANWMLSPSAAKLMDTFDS
Sequence of RAF proto-oncogene serine/threonine-protein kinase (Homo sapiens) (P04049 whole entry): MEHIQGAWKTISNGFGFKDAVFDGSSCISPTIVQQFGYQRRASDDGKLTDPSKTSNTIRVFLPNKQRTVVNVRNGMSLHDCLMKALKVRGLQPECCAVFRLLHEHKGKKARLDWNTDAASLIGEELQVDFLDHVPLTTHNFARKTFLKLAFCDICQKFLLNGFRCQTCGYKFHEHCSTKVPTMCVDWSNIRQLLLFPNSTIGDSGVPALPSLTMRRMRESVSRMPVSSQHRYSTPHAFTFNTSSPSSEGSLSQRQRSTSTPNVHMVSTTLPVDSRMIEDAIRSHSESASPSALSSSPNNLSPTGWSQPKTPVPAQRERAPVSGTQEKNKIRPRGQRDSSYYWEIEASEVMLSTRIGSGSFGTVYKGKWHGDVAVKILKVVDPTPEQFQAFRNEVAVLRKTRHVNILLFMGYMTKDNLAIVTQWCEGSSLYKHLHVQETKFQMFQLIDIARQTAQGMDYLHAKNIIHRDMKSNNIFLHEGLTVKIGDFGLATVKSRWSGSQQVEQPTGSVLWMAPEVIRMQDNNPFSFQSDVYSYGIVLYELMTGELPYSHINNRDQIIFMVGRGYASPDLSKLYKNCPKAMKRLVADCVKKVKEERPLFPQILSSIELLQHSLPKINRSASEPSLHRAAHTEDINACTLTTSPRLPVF

As for `C[C@H](Nc1ncnc2nc[nH]c12)c1cc2cccc(Cl)c2c(=O)n1-c1ccccc1`, the Activity is 89.4% in experiment [1]; 95% in experiment [2]; 90.7% in experiment [3]; 93.5% in experiment [4]; 97.7% in experiment [5]; 98.6% in experiment [6].
With `CC[C@H](Nc1ncnc2[nH]cnc12)c1nc2cccc(F)c2c(=O)n1-c1ccccc1`, the Activity was 89.3% in experiment [1]; 102% in experiment [2]; 92.8% in experiment [3]; 95.3% in experiment [4]; 98.6% in experiment [5]; 102% in experiment [6].
For the molecule `CC(C)Oc1ccc(-c2nn([C@@H](C)c3oc4ccc(F)cc4c(=O)c3-c3cccc(F)c3)c3ncnc(N)c23)cc1F` [UMBRALISIB], the Activity in experiment [1] came out at 88.3%; in experiment [2], 97.8%; in experiment [3], 92.9%; in experiment [4], 93.1%; in experiment [5] it was 99.9%; in experiment [6], 99.8%.
